Each structure is given as a SMILES string.

The assay concerns the target Rae1_31-368-Nup98_157-213 heterodimer (Rae1-Nup98 complex) (Homo sapiens, UniProt P52948+P78406). Nature of the assay: biochemical. The class given is binding.

Chain of Rae1_31-368-Nup98_157-213 heterodimer (Rae1-Nup98 complex) (P78406 31-368 limits assumed): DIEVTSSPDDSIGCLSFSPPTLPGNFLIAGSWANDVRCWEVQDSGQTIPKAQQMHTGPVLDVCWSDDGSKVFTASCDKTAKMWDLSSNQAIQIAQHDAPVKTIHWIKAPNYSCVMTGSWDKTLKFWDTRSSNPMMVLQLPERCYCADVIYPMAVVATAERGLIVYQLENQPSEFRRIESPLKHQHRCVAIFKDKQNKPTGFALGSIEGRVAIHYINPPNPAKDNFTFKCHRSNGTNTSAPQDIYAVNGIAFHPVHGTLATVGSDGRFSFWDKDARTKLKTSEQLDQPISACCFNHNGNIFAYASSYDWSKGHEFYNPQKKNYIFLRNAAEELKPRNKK
Chain of Rae1_31-368-Nup98_157-213 heterodimer (Rae1-Nup98 complex) (P52948 157-213 partner limits assumed): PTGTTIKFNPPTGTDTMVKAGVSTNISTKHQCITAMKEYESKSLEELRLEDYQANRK

As for `CC[C@H](C)[C@H](NC(=O)[C@H](CCC(=O)O)NC(=O)[C@H](CCSC)NC(=O)[C@@H]1CCCN1C(=O)[C@H](CCC(N)=O)NC(=O)[C@H](CCC(=O)O)NC(=O)[C@H](CCC(=O)O)NC(=O)[C@H](CC(=O)O)NC(=O)[C@H](CC(C)C)NC(=O)[C@H](CCC(N)=O)NC(=O)[C@H](CO)NC(=O)[C@@H](N)Cc1ccc(O)cc1)C(=O)N[C@@H](CC(=O)O)C(=O)N[C@@H](Cc1ccc(O)cc1)C(=O)N1CCC[C@H]1C(=O)O` [SARS-CoV-2 ORF6 C3 + YP], the Kd came to 200 nM.

Values taken from publication PMC9376891 (Nature Communications, 2022).
